From patent US20060079510A1, “Use of PARP-1 inhibitors for protecting tumorcidal lymphocytes from apoptosis” (priority 2004, published 2006)
“Also recorded” adds a separate entry of the source.

Experiments:
Hepatitis C = test: Treatment of subjects suffering from Hepatitis C (Example 3); format: in vivo, human; conditions: PJ34 100 mg/day intravenously, three weeks
Experimental: Subjects suffering from Hepatitis C are identified. Individuals are administered 100 mg/day of a PARP-1 inhibitor, PJ34, intravenously for a period of three weeks.

tumoricidal lymphocytes = test: Tumor-killing function of tumoricidal lymphocytes after phagocyte or hydrogen peroxide exposure; format: cell-based, human; conditions: PJ34 250 nM or DPQ 3 μM
Source text: As detailed above, a significant part of the dysfunction of tumor-killing lymphocytes at the site of malignant tumor growth has been attributed to inhibitory signals from tumor-infiltrating or tumor-adjacent phagocytes. […] However, the molecular events underlying phagocyte-induced lymphocyte apoptosis are not fully understood. The role of two enzyme systems responsible for induction and execution of apoptosis, caspases and the poly(ADP-ribose) polymerase (PARP) were investigated. Human tumoricidal lymphocytes were incubated with autologous mononuclear phagocytes or with exogenously added hydrogen peroxide, and assayed for apoptotic features at various time points. […] It is therefore believed that PARP-dependent cell death may be critically involved in phagocyte-dependent, oxygen free radical-induced cell death.

caspase-3 = test: Caspase activation in lymphocytes, FLICA assay (FAM-VAD.fmk), flow cytometry; format: cell-based, human; conditions: overnight, phagocytes ratio 1:1 or H2O2 250 μM; PJ34 pretreatment printed as 250 μM and 250 ηM
Experimental: To study the role of caspases for ROS-induced cell death in anti-neoplastic cells, lymphocytes subjected to phagocytes or hydrogen peroxide were assayed for binding of a fluorochrome-conjugated caspase-3 inhibitor. Briefly, lymphocytes were incubated overnight with hydrogen peroxide (250 μM) or ROS-producing phagocytes (Ph, ratio 1:1) and then assayed for caspase activation using a Fluorochrome-Labeled Inhibitor of Caspases (FLICA) assay. Lymphocytes were incubated with a FITC-labeled caspase inhibitor (FAM-VAD.fmk, MP Biomedicals, Irvine, Calif.) for one hour according to the instructions provided by the manufacturer, and the percentage of cells with active caspase-3 was determined using flow cytometry. Caspase-3 activation was also monitored using the fluorogenic caspase-3 substrate PhiPhiLux (Oncolmmunin, Gaithersburg, Md.) according to the manufacturer's instructions. The FLICA reagent traverses the membranes of all cells and bind to the active site of activated caspase 3. Thus, only cells with activated caspases will retain the reagent and become fluorescent.
Briefly, after overnight incubation with mononuclear phagocytes (Ph, ratio 1:1) or hydrogen peroxide (250 μM) in the presence or absence of PJ34 (250 μM), lymphocytes were stained with a FITC-labeled caspase inhibitor (FAM-VAD.fmk) and assayed for caspase activation using flow cytometry. […]

lymphocytes = test: Altered mitochondrial transmembrane potential (Mitochondrial Membrane Sensor Kit) and To-Pro-3 staining; format: cell-based, human; conditions: H2O2 250 μM or mononuclear phagocytes; PJ34 250 μM as printed
Experimental: A Mitochondrial Membrane Sensor Kit (BD Clontech) was used to identify cells with altered mitochondrial transmembrane potential according to the manufacturer's protocol.
Briefly, lymphocytes exposed to hydrogen peroxide (250 μM) were assayed for altered mitochondrial transmembrane potential and plasma membrane integrity at various time points. Depolarization of the Ψm is seen as an increase in green fluorescence (mitosensor monomers).

[1] = test system: peripheral blood lymphocytes; test: Oxidant-induced cell death in lymphocytes incubated with mononuclear phagocytes or hydrogen peroxide, flow cytometry; format: cell-based, human; conditions: for protection of lymphocytes from phagocyte- or hydrogen peroxide-induced (oxidant/ROS-induced) cell death / apoptosis: pretreatment, PJ34 250 nM, DPQ 3 μM, Z-VAD.fmk 100 μM, overnight incubation with phagocytes or H2O2
Experimental: Peripheral venous blood was obtained as freshly prepared leukopacks from healthy blood donors at the Blood Centre, Sahlgren's Hospital, Göteborg, Sweden, to study the activation characteristics of cytotoxic lymphocytes in the presence and absence of MO, and ROM inhibitors. The blood (65 ml) was mixed with 92.5 ml Iscove's medium, 35 ml 6% Dextran (Kabi Pharmacia, Stockholm, Sweden) and 7.5 ml acid citrate dextrose (ACD) (Baxter, Deerfield, Ill.). After incubation for 15 minutes at room temperature, the supernatant was carefully layered onto Ficoll-Hypaque (Lymphoprep, Myegaard, Norway). Mononuclear cells (MNC) were collected at the interface after centrifugation at 380 g for 15 minutes at room temperature, washed twice in PBS and resuspended in Iscove's medium supplemented with 10% human AB^+ serum. During all further separation of cells, the cell suspensions were kept in siliconized test tubes (Vacuette, Greiner, Stockholm).
The MNC were further separated into lymphocyte and monocyte (MO) populations using the counter-current centrifugal elutriation (CCE) technique originally described by Yasaka and co-workers (Yasaka, T. et al., J. Immunol., 127:1515) with modifications as described in Hansson, M., et al. (J. Immunol., 156: 42 (1996); hereby incorporated by reference). Briefly, the sedimentation rate of cells in a spinning rotor was balanced by a counter-directed flow through the chamber. By slowly increasing the flow rate, fractions of cells of well-defined sizes were collected. The MNC were resuspended in elutration buffer containing 0.5% BSA (ICN Biomedicals Inc., Aurora, Ohio) and 0.1% EDTA (VWR, Göteborg, Sweden) in buffered NaCl and fed into a Beckman J2-21 ultracentrifuge with a JE-6B rotor (Bechman Coulter Inc., Fullerton, Calif.) at 2100 rpm. A fraction with >90% MO was obtained at a flow rate of 19 ml/min. A lymphocyte fraction enriched for NK-cells (CD3^−/56^+ phenotype) and T-cells (CD3^+/56^−) was recovered at flow rates of 14-15 ml/min. This fraction contained <3% MO and consisted of CD3ε^−/56^+ NK-cells (45-50%), CD3ε^+/56^− T-cells (35-40%), CD3ε^−/56^− cells (5-10%), and CD3ε^+/56^+ cells (1-5%), as judged by flow cytometry. In some experiments, dynabeads (Dynal A/S, Oslo, Norway) coated with anti-CD56 were used to obtain purified lymphocyte preparations of T-cells, as described in detail by Hansson, M., et al., incorporated above.
Briefly, lymphocytes were incubated overnight with autologous mononuclear phagocytes in the presence or absence of catalase (200 U/ml), histamine ([…]) or DPI (3 μM).
Briefly, lymphocytes, pretreated with PJ34 (250 ηM), Z-VAD.fmk (100 μM) or medium, were subjected to mononuclear phagocytes at different Mo/Ly ratios (FIG. 5A) or to different concentrations of H2O2 (FIG. 5C). FIGS. 5A-5D illustrate that PJ34 protected lymphocytes from cell death induced by phagocytes ([…], ratio 1:1, p<0.05) and hydrogen peroxide (FIGS. 5C and 5D, 250 μM, p<0.001).

melanoma cell lines = conditions: histamine and IL-2 given prior to inoculation; cited from earlier work
NK cells [2] = conditions: histamine and IL-2; cited from earlier work
[3] = test system: herpes simplex virus (HSV); conditions: cited from earlier work
NK cells [4] = conditions: cited from earlier work
human lymphocytes = test: Large-scale DNA fragmentation, pulsed-field gel electrophoresis; format: cell-based; conditions: cells treated with Z-VAD.fmk and 250 μM H2O2, 16 hours
Experimental: Translocation of AIF to the nucleus has been associated with large-scale DNA fragmentation. The observed accumulation of nuclear AIF after challenge with H2O2 led to investigation as to whether large-scale DNA fragmentation accompanied lymphocyte cell death. To that end, lymphocytes were exposed to H2O2, cast into agarose plugs and analyzed using pulsed-field gel electrophoresis. Briefly, human lymphocytes were exposed to 250 μM H2O2 and incubated overnight at 37° C. After 16 hours, the cells were washed twice with PBS and resuspended in PBS. Cells were mixed with an equal volume of 2% low melting point agarose and cast into agarose plugs. After solidifying, plugs were incubated overnight at 56° C. in a buffer containing 0.2% Sodium deoxycholate and 0.5% N-lauroyl sarcosine supplemented with 0.5 mg/ml proteinase K.

[5] = vs subjects without PARP-1 inhibitor

| Compound | symptoms associated with Hepatitis C (Hepatitis C) | ROM-mediated damage (Hepatitis C; [5]) | cytotoxic lymphocyte activation (Hepatitis C; [5]) | restoration of tumor-killing function (tumoricidal lymphocytes) | caspase activation triggered by phagocytes and H2O2 (FIG. 3) (caspase-3) | protection from oxidant-induced alterations of Ψm (FIG. 4) (lymphocytes) | protection from cell death induced by hydrogen peroxide (FIGS. 5C and 5D) ([1]; PJ34 250 ηM, H2O2 250 μM, p<0.001) | protection from cell death induced by phagocytes ([1]; PJ34 250 ηM, Mo/Ly ratio 1:1, p<0.05) | protection of lymphocytes from phagocyte- or hydrogen peroxide-induced (oxidant/ROS-induced) cell death / apoptosis [1] | development of lung metastatic foci (melanoma cell lines) | granulocyte mediated NK cell suppression (NK cells [2]) | survival time, combination ([3]; combination of histamine and IL-2) | survival time ([3]; single dose of histamine) | monocyte mediated NK cell suppression (NK cells [4]; histamine and IL-2) | NK cell cytotoxicity (NK cells [4]; histamine and IL-2 in the presence of monocytes, relative to IL-2 only) | effect on NK mediated cytotoxicity (NK cells [4]; in the absence of monocytes) | protection of lymphocytes from phagocyte-induced cell death (FIG. 1) ([1]; overnight with autologous mononuclear phagocytes, catalase 200 U/ml, histamine, DPI 3 μM, p<0.001, n=4) | DNA fragments on pulsed-field gel (FIG. 7) (human lymphocytes) |
| --- | --- | --- | --- | --- | --- | --- | --- | --- | --- | --- | --- | --- | --- | --- | --- | --- | --- | --- |
| CN(C)CC(=O)Nc1ccc2[nH]c(=O)c3ccccc3c2c1 [PJ34] | reduction in symptoms associated with Hepatitis C | reduction in ROM-mediated damage | increase in cytotoxic lymphocyte activation | restored | reversed | protected | protected | protected | completely protected; also recorded: resisted the oxidative stress | – | – | – | – | – | – | – | – | – |
| NCCc1c[nH]cn1 [histamine] | – | – | – | – | – | – | – | – | – | protected | only partially removed | synergistic effect | prolong survival time | complete or nearly complete abrogation | elevated levels of cytotoxicity | no effect or weakly suppressed | fully protected | – |
| Z-VAD.fmk | – | – | – | – | – | failed to display any significant protective effect | – | – | only partially protected; also recorded: failed to protect | – | – | – | – | – | – | – | – | distinct band (approx. 50 kb) |
